In patent publication US20230398130A1, “METHODS AND COMPOSITIONS FOR DIFFERENTIATING STEM CELLS” (Massachusetts Institute of Technology, priority 2020, published 2023):

Key:
ISC-enriched organoids [1] = test: Primary screen, 384-well 2.5-D organoid differentiation (ENR+CD, 6 days): basal lysozyme secretion (LYZ.NS); assay type: cell-based, murine; details: for Dose.FC.LYZ.NS / Z.LYZ.NS / SSMD.LYZ.NS / Z.LYZ.NS (standard z score) / Dose.FC.LYZ.NS (log 2 fold change): primary screen; for Dose.FC.LYZ.NS: ENR+CD 6 days, FC vs plate median; for Z.LYZ.NS: standard z score of FC; for SSMD.LYZ.NS: strictly standardized mean difference; for Dose.FC.LYZ.NS (log 2 fold change): vs plate median
Text: (§1) High-throughput screening.

ISC-enriched organoids [2] = test: Primary screen, 384-well 2.5-D organoid differentiation (ENR+CD, 6 days): carbachol-induced lysozyme secretion (LYZ.S); assay type: cell-based, murine; details: for Dose.FC.LYZ.S / Z.LYZ.S / SSMD.LYZ.S / Dose.FC.LYZ.S (log 2 fold change): primary screen; for Dose.FC.LYZ.S: ENR+CD 6 days, FC vs plate median; for Z.LYZ.S: standard z score; for SSMD.LYZ.S: strictly standardized mean difference; for Dose.FC.LYZ.S (log 2 fold change): vs plate median
Text: as §1

ISC-enriched organoids [3] = test: Primary screen, 384-well 2.5-D organoid differentiation (ENR+CD, 6 days, Target Selective Inhibitor Library, vs whole-plate median): ATP (CellTiter-Glo 3D, CTG); details: for Dose.FC.CTG / Z.CTG / SSMD.CTG / Z.CTG (standard z score) / Dose.FC.CTG (log 2 fold change): primary screen; for Dose.FC.CTG: ENR+CD 6 days, FC vs plate median; for SSMD.CTG: strictly standardized mean difference; for Dose.FC.CTG (log 2 fold change): vs plate median
[4] = dose 0.08 uM (1st of 4 lines per treatment; dose not printed in this part)
[5] = dose 0.40 uM (2nd of 4 lines per treatment; dose not printed in this part)
[6] = dose 2.00 uM (3rd of 4 lines per treatment; dose not printed in this part)
[7] = dose 10.00 uM (4th of 4 lines per treatment; dose not printed in this part)
[8] = dose 0.08 uM, standard z score of FC
[9] = dose 0.40 uM, standard z score of FC
[10] = dose 2.00 uM, standard z score of FC
[11] = dose 10.00 uM, standard z score of FC
[12] = 1st of the 4 dose lines of the treatment (dose not given)
[13] = 2nd of the 4 dose lines of the treatment (dose not given)
[14] = 3rd of the 4 dose lines of the treatment (dose not given)
[15] = 4th of the 4 dose lines of the treatment (dose not given)

CN1CCc2cc3c(cc2[C@H]1[C@@H]1OC(=O)c2c1ccc1c2OCO1)OCO3 [(+)-Bicuculline]
SSMD.LYZ.NS_Rep (strictly standardized mean difference) (ISC-enriched organoids [1]; [4]): 0.481
SSMD.LYZ.NS_Rep (strictly standardized mean difference) (ISC-enriched organoids [1]; [5]): 0.106
SSMD.LYZ.NS_Rep (strictly standardized mean difference) (ISC-enriched organoids [1]; [6]): 0.276
SSMD.LYZ.NS_Rep (strictly standardized mean difference) (ISC-enriched organoids [1]; [7]): 0.175
Dose.FC.LYZ.NS (ISC-enriched organoids [1]; dose 0.08 uM): 0.092 log 2 fold change
Z.LYZ.NS (ISC-enriched organoids [1]; dose 0.08 uM): 0.805
Dose.FC.LYZ.NS (ISC-enriched organoids [1]; dose 0.40 uM): 0.013 log 2 fold change
Z.LYZ.NS (ISC-enriched organoids [1]; dose 0.40 uM): 0.116
Dose.FC.LYZ.NS (ISC-enriched organoids [1]; dose 2.00 uM): 0.031 log 2 fold change
Z.LYZ.NS (ISC-enriched organoids [1]; dose 2.00 uM): 0.270
Dose.FC.LYZ.NS (ISC-enriched organoids [1]; dose 10.00 uM): 0.020 log 2 fold change
Z.LYZ.NS (ISC-enriched organoids [1]; dose 10.00 uM): 0.176
SSMD.LYZ.S_Rep (strictly standardized mean difference) (ISC-enriched organoids [2]; [4]): 0.545
Z.LYZ.S (standard z score) (ISC-enriched organoids [2]; [4]): 1.005
SSMD.LYZ.S_Rep (strictly standardized mean difference) (ISC-enriched organoids [2]; [5]): 0.216
Z.LYZ.S (standard z score) (ISC-enriched organoids [2]; [5]): 0.221
SSMD.LYZ.S_Rep (strictly standardized mean difference) (ISC-enriched organoids [2]; [6]): −0.164
Z.LYZ.S (standard z score) (ISC-enriched organoids [2]; [6]): −0.169
SSMD.LYZ.S_Rep (strictly standardized mean difference) (ISC-enriched organoids [2]; [7]): 0.264
Z.LYZ.S (standard z score) (ISC-enriched organoids [2]; [7]): 0.465
Dose.FC.LYZ.S (ISC-enriched organoids [2]; dose 0.08 uM): 0.155 log 2 fold change
Dose.FC.LYZ.S (ISC-enriched organoids [2]; dose 0.40 uM): 0.034 log 2 fold change
Dose.FC.LYZ.S (ISC-enriched organoids [2]; dose 2.00 uM): −0.026 log 2 fold change
Dose.FC.LYZ.S (ISC-enriched organoids [2]; dose 10.00 uM): 0.072 log 2 fold change
SSMD.CTG_Rep (strictly standardized mean difference) (ISC-enriched organoids [3]; [4]): 0.472
SSMD.CTG_Rep (strictly standardized mean difference) (ISC-enriched organoids [3]; [5]): −0.078
SSMD.CTG_Rep (strictly standardized mean difference) (ISC-enriched organoids [3]; [6]): −0.237
SSMD.CTG_Rep (strictly standardized mean difference) (ISC-enriched organoids [3]; [7]): −0.405
Dose.FC.CTG (ISC-enriched organoids [3]; dose 0.08 uM): 0.318 log 2 fold change
Z.CTG (ISC-enriched organoids [3]; [8]): 0.760
Dose.FC.CTG (ISC-enriched organoids [3]; dose 0.40 uM): −0.029 log 2 fold change
Z.CTG (ISC-enriched organoids [3]; [9]): −0.069
Dose.FC.CTG (ISC-enriched organoids [3]; dose 2.00 uM): −0.166 log 2 fold change
Z.CTG (ISC-enriched organoids [3]; [10]): −0.396
Dose.FC.CTG (ISC-enriched organoids [3]; dose 10.00 uM): −0.132 log 2 fold change
Z.CTG (ISC-enriched organoids [3]; [11]): −0.315

NC(=O)Nc1cc(-c2cccc(F)c2)sc1C(=O)N[C@H]1CCCNC1 [AZD7762]
Dose.FC.LYZ.NS (ISC-enriched organoids [1]; dose 0.08 uM): 0.010 log 2 fold change
Z.LYZ.NS (ISC-enriched organoids [1]; dose 0.08 uM): 0.084
Dose.FC.LYZ.NS (ISC-enriched organoids [1]; dose 0.40 uM): −0.159 log 2 fold change
Z.LYZ.NS (ISC-enriched organoids [1]; dose 0.40 uM): −1.385
Dose.FC.LYZ.NS (ISC-enriched organoids [1]; dose 2.00 uM): −0.211 log 2 fold change
Z.LYZ.NS (ISC-enriched organoids [1]; dose 2.00 uM): −1.835
Dose.FC.LYZ.NS (ISC-enriched organoids [1]; dose 10.00 uM): −0.220 log 2 fold change
Z.LYZ.NS (ISC-enriched organoids [1]; dose 10.00 uM): −1.917
Dose.FC.LYZ.S (ISC-enriched organoids [2]; dose 0.08 uM): 0.019 log 2 fold change
Dose.FC.LYZ.S (ISC-enriched organoids [2]; dose 0.40 uM): −0.251 log 2 fold change
Dose.FC.LYZ.S (ISC-enriched organoids [2]; dose 2.00 uM): −0.342 log 2 fold change
Dose.FC.LYZ.S (ISC-enriched organoids [2]; dose 10.00 uM): −0.369 log 2 fold change
Dose.FC.CTG (ISC-enriched organoids [3]; dose 0.08 uM): 0.054 log 2 fold change
Z.CTG (ISC-enriched organoids [3]; [8]): 0.129
Dose.FC.CTG (ISC-enriched organoids [3]; dose 0.40 uM): −0.384 log 2 fold change
Z.CTG (ISC-enriched organoids [3]; [9]): −0.917
Dose.FC.CTG (ISC-enriched organoids [3]; dose 2.00 uM): −0.804 log 2 fold change
Z.CTG (ISC-enriched organoids [3]; [10]): −1.920
Dose.FC.CTG (ISC-enriched organoids [3]; dose 10.00 uM): −1.361 log 2 fold change
Z.CTG (ISC-enriched organoids [3]; [11]): −3.251

CC#CCn1c(N2CCC[C@@H](N)C2)nc2c1c(=O)n(Cc1nc(C)c3ccccc3n1)c(=O)n2C [Linagliptin]
SSMD.LYZ.NS (ISC-enriched organoids [1]; [12]): 1.046
SSMD.LYZ.NS (ISC-enriched organoids [1]; [13]): 0.306
SSMD.LYZ.NS (ISC-enriched organoids [1]; [14]): 0.118
SSMD.LYZ.NS (ISC-enriched organoids [1]; [15]): 0.671
Z.LYZ.S (ISC-enriched organoids [2]; [12]): 0.905
Z.LYZ.S (ISC-enriched organoids [2]; [13]): 0.305
Z.LYZ.S (ISC-enriched organoids [2]; [14]): −0.204
Z.LYZ.S (ISC-enriched organoids [2]; [15]): 0.322
SSMD.LYZ.S (ISC-enriched organoids [2]; [12]): 0.797
SSMD.LYZ.S (ISC-enriched organoids [2]; [13]): 0.215
SSMD.LYZ.S (ISC-enriched organoids [2]; [14]): −0.126
SSMD.LYZ.S (ISC-enriched organoids [2]; [15]): 0.374
Z.CTG (ISC-enriched organoids [3]; Dose 0.08 uM, standard z score): 0.389
Z.CTG (ISC-enriched organoids [3]; Dose 0.40 uM, standard z score): 0.499
Z.CTG (ISC-enriched organoids [3]; Dose 2.00 uM, standard z score): 0.054
Z.CTG (ISC-enriched organoids [3]; Dose 10.00 uM, standard z score): −0.027
SSMD.CTG (ISC-enriched organoids [3]; [12]): 0.299
SSMD.CTG (ISC-enriched organoids [3]; [13]): 0.612
SSMD.CTG (ISC-enriched organoids [3]; [14]): 0.047
SSMD.CTG (ISC-enriched organoids [3]; [15]): −0.025

Cc1nn(-c2ccccc2)c(C)c1/C=N/N1CCN(Cc2ccccc2)CC1 [SANT-1]
Z.LYZ.NS (standard z score) (ISC-enriched organoids [1]; Dose 0.08 uM): 0.485
Dose.FC.LYZ.NS (log 2 fold change) (ISC-enriched organoids [1]; Dose 0.08 uM): 0.056
Z.LYZ.NS (standard z score) (ISC-enriched organoids [1]; Dose 0.40 uM): 0.002
Dose.FC.LYZ.NS (log 2 fold change) (ISC-enriched organoids [1]; Dose 0.40 uM): 0.000
Z.LYZ.NS (standard z score) (ISC-enriched organoids [1]; Dose 2.00 uM): 1.528
Dose.FC.LYZ.NS (log 2 fold change) (ISC-enriched organoids [1]; Dose 2.00 uM): 0.175
Z.LYZ.NS (standard z score) (ISC-enriched organoids [1]; Dose 10.00 uM): −0.430
Dose.FC.LYZ.NS (log 2 fold change) (ISC-enriched organoids [1]; Dose 10.00 uM): −0.049
Dose.FC.LYZ.S (log 2 fold change) (ISC-enriched organoids [2]; Dose 0.08 uM): 0.112
Dose.FC.LYZ.S (log 2 fold change) (ISC-enriched organoids [2]; Dose 0.40 uM): 0.024
Dose.FC.LYZ.S (log 2 fold change) (ISC-enriched organoids [2]; Dose 2.00 uM): 0.101
Dose.FC.LYZ.S (log 2 fold change) (ISC-enriched organoids [2]; Dose 10.00 uM): −0.120
Z.CTG (standard z score) (ISC-enriched organoids [3]; Dose 0.08 uM): 0.736
Dose.FC.CTG (log 2 fold change) (ISC-enriched organoids [3]; Dose 0.08 uM): 0.308
Z.CTG (standard z score) (ISC-enriched organoids [3]; Dose 0.40 uM): 0.186
Dose.FC.CTG (log 2 fold change) (ISC-enriched organoids [3]; Dose 0.40 uM): 0.078
Z.CTG (standard z score) (ISC-enriched organoids [3]; Dose 2.00 uM): 0.327
Dose.FC.CTG (log 2 fold change) (ISC-enriched organoids [3]; Dose 2.00 uM): 0.137
Z.CTG (standard z score) (ISC-enriched organoids [3]; Dose 10.00 uM): −0.100
Dose.FC.CTG (log 2 fold change) (ISC-enriched organoids [3]; Dose 10.00 uM): −0.042
